Test results taken from patent publication US11267825B2 (AICURIS GMBH & CO. KG, priority 2017, dated 2022).

Columns and labels:
HBV core protein = HBV core protein (UniProt P03146); type: biochemical; details: read-out: Assembly Activity (IC50); BODIPY-FL labelled core protein, assembly started with NaCl, read after 6 min
Procedure: Biochemical Capsid Assembly Assay
The screening for assembly effector activity was done based on a fluorescence quenching assay published by Zlotnick et al. (2007). The C-terminal truncated core protein containing 149 amino acids of the N-terminal assembly domain was fused to a unique cysteine residue at position 150 and was expressed in E. coli using the pET expression system (Merck Chemicals, Darmstadt). Purification of core dimer protein was performed using a sequence of size exclusion chromatography steps. In brief, the cell pellet from 1 L BL21 (DE3) Rosetta2 culture expressing the coding sequence of core protein cloned NdeI/XhoI into expression plasmid pET21b was treated for 1 h on ice with a native lysis buffer (Qproteome Bacterial Protein Prep Kit; Qiagen, Hilden). After a centrifugation step the supernatant was precipitated during 2 h stirring on ice with 0.23 g/ml of solid ammonium sulfate. Following further centrifugation the resulting pellet was resolved in buffer A (100 mM Tris, pH 7.5; 100 mM NaCl; 2 mM DTT) and was subsequently loaded onto a buffer A equilibrated CaptoCore 700 column (GE HealthCare, Frankfurt). The column flow through containing the assembled HBV capsid was dialyzed against buffer N (50 mM NaHCO3 pH 9.6; 5 mM DTT) before urea was added to a final concentration of 3M to dissociate the capsid into core dimers for 1.5 h on ice. The protein solution was then loaded onto a 1 L Sephacryl S300 column. After elution with buffer N core dimer containing fractions were identified by SDS-PAGE and subsequently pooled and dialyzed against 50 mM HEPES pH 7.5; 5 mM DTT. To improve the assembly capacity of the purified core dimers a second round of assembly and disassembly starting with the addition of 5 M NaCl and including the size exclusion chromatography steps described above was performed. From the last chromatography step core dimer containing fractions were pooled and stored in aliquots at concentrations between 1.5 to 2.0 mg/ml at −80° C.
Immediately before labelling the core protein was reduced by adding freshly prepared DTT in a final concentration of 20 mM. After 40 min incubation on ice storage buffer and DTT was removed using a Sephadex G-25 column (GE HealthCare, Frankfurt) and 50 mM HEPES, pH 7.5. For labelling 1.6 mg/ml core protein was incubated at 4° C. and darkness overnight with BODIPY-FL maleimide (Invitrogen, Karlsruhe) in a final concentration of 1 mM. After labelling the free dye was removed by an additional desalting step using a Sephadex G-25 column. Labelled core dimers were stored in aliquots at 4° C. In the dimeric state the fluorescence signal of the labelled core protein is high and is quenched during the assembly of the core dimers to high molecular capsid structures. The screening assay was performed in black 384 well microtiter plates in a total assay volume of 10 μl using 50 mM HEPES pH 7.5 and 1.0 to 2.0 μM labelled core protein. Each screening compound was added in 8 different concentrations using a 0.5 log-unit serial dilution starting at a final concentration of 100 μM, 31.6 μM or 10 μM. In any case the DMSO concentration over the entire microtiter plate was 0.5%. The assembly reaction was started by the injection of NaCl to a final concentration of […] which induces the assembly process to approximately 25% of the maximal quenched signal. 6 min after starting the reaction the fluorescence signal was measured using a Clariostar plate reader (BMG Labtech, Ortenberg) with an excitation of 477 nm and an emission of 525 nm. As 100% and 0% assembly control HEPES buffer containing 2.5 M and 0 M NaCl was used. Experiments were performed thrice in triplicates. EC50 values were calculated by non-linear regression analysis using the Graph Pad Prism 6 software (GraphPad Software, La Jolla, USA).

HBV = assay: Determination of HBV DNA from the supernatants of HepAD38 cells (anti-HBV activity); type: cell-based, hepatitis B virus; details: Hepatitis B virus, 144 h; HBV DNA in HepAD38 supernatant at day 6; read-out: Cell Activity (EC50)
Summary of the method: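 EC50 values were obtained by non-linear regression of HBV DNA copy numbers measured by qPCR against pCH-9/3091 plasmid standards. The DNA came from filtered supernatants collected on day 6. Before that, tetracycline-withdrawn HepAD38 cells had been exposed to serial half-log compound dilutions, with tetracycline-treated cells as the non-producing control.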

Sequence of HBV core protein (P03146 whole entry, looked up): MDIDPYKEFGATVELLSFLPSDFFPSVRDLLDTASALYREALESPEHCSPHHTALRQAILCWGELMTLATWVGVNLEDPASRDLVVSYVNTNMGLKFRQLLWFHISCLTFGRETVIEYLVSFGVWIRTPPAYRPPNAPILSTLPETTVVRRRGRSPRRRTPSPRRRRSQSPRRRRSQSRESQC

| Structure (SMILES) | IC50 (HBV core protein) [µM] | EC50 (HBV) [µM] |
| --- | --- | --- |
| CCc1cccc2[nH]c(C(=O)N3CCc4nc(N)sc4C3)cc12 [Example 81, 5-(4-ethyl-1H-indole-2-carbonyl)-4H,5H,6H,7H-[1,3]thiazolo[5,4-c]pyridin-2-amine] | < 5 | < 1 |
| O=C(c1cc2ccccc2[nH]1)N1CCc2nc(CNC3CC3)sc2C1 [Example 38, N-{[5-(1H-indole-2-carbonyl)-4H,5H,6H,7H-[1,3]thiazolo[5,4-c]pyridin-2-yl]methyl}cyclopropanamine] | < 5 | < 1 |
| Nc1nc2c(s1)CN(C(=O)c1cc3ccc(Cl)cc3[nH]1)CC2 [Example 156, 5-(6-chloro-1H-indole-2-carbonyl)-4H,5H,6H,7H-[1,3]thiazolo[5,4-c]pyridin-2-amine] | < 5 | < 1 |
| O=C(Nc1nc2c(s1)CN(C(=O)c1cc3ccccc3[nH]1)CC2)C1CCC(O)CC1 (stereo not shown) [Example 411, 4-hydroxy-N-[5-(1H-indole-2-carbonyl)-4H,5H,6H,7H-[1,3]thiazolo[5,4-c]pyridin-2-yl]cyclohexane-1-carboxamide] | < 5 | < 1 |
| O=C(c1cc2ccccc2[nH]1)N1CCc2nc(NCCc3c[nH]cn3)sc2C1 [Example 286, N-[2-(1H-imidazol-4-yl)ethyl]-5-(1H-indole-2-carbonyl)-4H,5H,6H,7H-[1,3]thiazolo[5,4-c]pyridin-2-amine] | < 5 | < 1 |
| Cc1nc2c(s1)CN(C(=O)c1cc3c(F)ccc(F)c3[nH]1)CC2 [Example 191, 4,7-difluoro-2-{2-methyl-4H,5H,6H,7H-[1,3]thiazolo[5,4-c]pyridine-5-carbonyl}-1H-indole] | 5 to 10 | < 1 |
| O=C(c1cc2cc(F)c(Cl)cc2[nH]1)N1CCc2nc(NCC3(CO)CC3)sc2C1 [Example 234, [1-({[5-(6-chloro-5-fluoro-1H-indole-2-carbonyl)-4H,5H,6H,7H-[1,3]thiazolo[5,4-c]pyridin-2-yl]amino}methyl)cyclopropyl]methanol] | < 5 | < 1 |
| O=C(c1cc2c(Br)cccc2[nH]1)N1CCc2nc(NCC3(O)CCC3)sc2C1 [Example 364, 1-({[5-(4-bromo-1H-indole-2-carbonyl)-4H,5H,6H,7H-[1,3]thiazolo[5,4-c]pyridin-2-yl]amino}methyl)cyclobutan-1-ol] | < 5 | < 1 |
| CC(C)(C)OC(=O)N1CCOCC1CNc1nc2c(s1)CN(C(=O)c1cc3ccccc3[nH]1)CC2 (stereo not shown) [Example 238, tert-butyl 3-({[5-(1H-indole-2-carbonyl)-4H,5H,6H,7H-[1,3]thiazolo[5,4-c]pyridin-2-yl]amino}methyl)morpholine-4-carboxylate] | < 100 | 1 to 10 |
| O=C(c1cc2ccc(Br)cc2[nH]1)N1CCc2nc(NCC3CCOC3)sc2C1 (stereo not shown) [Example 113, 5-(6-bromo-1H-indole-2-carbonyl)-N-[(oxolan-3-yl)methyl]-4H,5H,6H,7H-[1,3]thiazolo[5,4-c]pyridin-2-amine] | < 5 | < 1 |
| O=C(c1cc2c(C(F)F)cc(F)cc2[nH]1)N1CCc2nc(NCC3CCOC3)sc2C1 (stereo not shown) [Example 326, 5-[4-(difluoromethyl)-6-fluoro-1H-indole-2-carbonyl]-N-[(oxolan-3-yl)methyl]-4H,5H,6H,7H-[1,3]thiazolo[5,4-c]pyridin-2-amine] | < 5 | < 1 |
| CC(O)CNc1nc2c(s1)CN(C(=O)c1cc3c(F)ccc(F)c3[nH]1)CC2 (stereo not shown) [Example 144, 1-{[5-(4,7-difluoro-1H-indole-2-carbonyl)-4H,5H,6H,7H-[1,3]thiazolo[5,4-c]pyridin-2-yl]amino}propan-2-ol] | < 5 | < 1 |
| Cc1nc2c(s1)CN(C(=O)c1cc3ccc(Cl)cc3[nH]1)CC2 [Example 162] | < 5 | < 1 |
| Cc1ccc2cc(C(=O)N3CCc4nc(N)sc4C3)[nH]c2c1 [Example 150, 5-(6-methyl-1H-indole-2-carbonyl)-4H,5H,6H,7H-[1,3]thiazolo[5,4-c]pyridin-2-amine] | < 5 | < 1 |
